These results are taken from publication PMC11915835, “Enhancing the solubility of SARS-CoV-2 inhibitors to increase future prospects for clinical development” (Journal of Virology, 2025).

The IC90 is the concentration at which the effect reaches the 90% level.

This assay concerns the target SARS-CoV-2 S D614G (Severe acute respiratory syndrome coronavirus 2, UniProt P0DTC2, D614G). In kind it is cell-based. The note with it: read-out: IC90, inhibition of S-mediated cell–cell fusion, SARS-CoV-2 D614G.
For the substance “Ac-DISQINASVVNIEYEIKKLEEVAKKLEESLIDLQEL-NH2 [QE]”, the IC90 was found to be 70 ± 10 nM.
With “Ac-PDVDLGDISQINASVVNIEYEIKKLEEVAKKLEESLIDLQEL-NH2 [QE-EXT]” the figure was 90 ± 20 nM.
With “Ac-SIDQINATFVDIEYEIKKLEEVAKKLEESYIDLKEL-NH2 [SK]”, the IC90 was 96 ± 20 nM.
